ChEMBL document CHEMBL1149753, “Two new alkaloids from Xestospongia sp., a New Caledonian sponge” (1992)
Values after ≈ are worked out from the molar mass of the structure shown. Active and inactive are the calls of the source. The calls are words filed in the database; no cut-off is given here.

Columns and labels:
L1210 = assay: Cytotoxicity against mouse L1210 cells; format: functional; conditions: for EC50: read-out: ED50 (the source's name)
KB = assay: Cytotoxicity against human KB cells; format: functional; conditions: for EC50: read-out: ED50 (the source's name)
P388 = assay: In vivo antitumor activity against mouse P388 cells; format: functional, organism-based

CN(C)CC1NCCc2c1[nH]c1ccccc21 (stereo unspecified)
ED50 (L1210): inactive | ED50 (KB): inactive

O[C@@]12CCCCCC[C@H]3CCN4CCC[C@@H](CCCCCC[C@H]5CCN(CCC1)[C@@H]2O5)[C@H]4O3 [DEMETHYLXESTOSPONGIN B]
Activity (P388): inactive | EC50 (L1210): 0.8 µg/mL (≈ 1.73 µM) | EC50 (KB): 2.5 µg/mL (≈ 5.4 µM)

C[C@@H]1CN2CCC[C@H]3CCCCCC[C@H]4CCN5CCC[C@@](O)(CCCCCC[C@@H]1O[C@H]32)[C@H]5O4 [XESTOSPONGIN B]
Activity (P388): inactive | EC50 (L1210): 2 µg/mL (≈ 4.2 µM) | EC50 (KB): 2.5 µg/mL (≈ 5.24 µM)

O[C@@]12CCCCCC[C@H]3CCN4CCC[C@H](CCCCCC[C@H]5CCN(CCC1)[C@@H]2O5)[C@H]4O3 [XESTOSPONGIN D]
Activity (P388): inactive | EC50 (L1210): 0.2 µg/mL (≈ 0.432 µM) | EC50 (KB): 2 µg/mL (≈ 4.32 µM)
